This note sets out measurements from US20230271956A1, “AMIDE DERIVATIVES” (Merck Patent GmbH, priority 2020, published 2023).

In the experiment the target is T1, human rec ACSS2 (Homo sapiens, UniProt Q9NR19).
T1 construct: myc (C); purchased Origene
Description: Biochemical activity ACSS2 assay (AMP-Glo). The conditions noted are these: human recombinant ACSS2, AMP-Glo, 180 min at 37° C. The procedure, abridged: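 C-terminal myc-tagged human recombinant ACSS2 (1 nM) reacted with 100 µM ATP, 100 µM CoA and 500 µM acetate (final) in pH 7.5 Hepes buffer for 180 min at 37° C, compound in 10 concentrations from 30 µM. Released AMP detected by AMP-Glo luminescence. IC50 normalised to inhibitor-free reaction and 5 µM reference inhibitor.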

pIC50: −log10 of the molar value.

T1 sequence (Q9NR19 whole entry): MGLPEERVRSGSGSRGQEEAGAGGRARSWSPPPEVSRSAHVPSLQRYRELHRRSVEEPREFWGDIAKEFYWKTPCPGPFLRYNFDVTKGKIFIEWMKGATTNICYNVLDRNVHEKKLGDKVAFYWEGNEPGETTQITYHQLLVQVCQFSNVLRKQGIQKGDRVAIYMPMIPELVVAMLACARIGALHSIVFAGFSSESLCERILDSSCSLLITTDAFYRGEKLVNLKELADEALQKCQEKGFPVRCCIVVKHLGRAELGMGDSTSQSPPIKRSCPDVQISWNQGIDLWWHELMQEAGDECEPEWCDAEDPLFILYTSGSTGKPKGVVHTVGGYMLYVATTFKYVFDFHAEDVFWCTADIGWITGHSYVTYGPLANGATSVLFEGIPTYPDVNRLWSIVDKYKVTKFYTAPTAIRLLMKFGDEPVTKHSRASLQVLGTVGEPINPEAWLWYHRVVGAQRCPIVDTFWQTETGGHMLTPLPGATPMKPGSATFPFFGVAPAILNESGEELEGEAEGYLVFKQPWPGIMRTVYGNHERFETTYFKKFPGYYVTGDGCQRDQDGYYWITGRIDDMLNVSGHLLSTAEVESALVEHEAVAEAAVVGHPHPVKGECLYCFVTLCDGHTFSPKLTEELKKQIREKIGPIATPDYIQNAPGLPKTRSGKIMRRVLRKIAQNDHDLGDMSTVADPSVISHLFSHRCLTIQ

One may read the pIC50 as the negative decadic logarithm of the IC50, by convention in mol/L. Turning to `CCn1cnc(NC(=O)c2cc3c(nc2F)nc(C(O)(c2ccccc2F)c2ccccc2F)n3CC)n1` [Compound 91, 2-[bis(2-fluorophenyl)(hydroxy)methyl]-1-ethyl-N-(1-ethyl-1H-1,2,4-triazol-3-yl)-5-fluoro-1H-imidazo[4,5-b]pyridine-6-carboxamide], the pIC50 was 8.00 to 9.00.

Turning to `CCc1c(C(O)(c2ccccc2)c2ccccc2)nn2cc(OC)c(C(=O)Nc3ncn(CC)n3)cc12` [Compound 11, 3-Ethyl-2-(hydroxy-diphenyl-methyl)-6-methoxy-pyrazolo[1,5-a]pyridine-5-carboxylic acid (1-ethyl-1H-[1,2,4]triazol-3-yl)-amide], the negative-log IC50 (pIC50) was 8.00 to 9.00.

With `CCc1c(C(O)(c2ccccc2)c2ccccc2)nn2cc(OC)c(C(=O)Nc3cnn(CC)c3)cc12` [Compound 8, 3-Ethyl-2-(hydroxy-diphenyl-methyl)-6-methoxy-pyrazolo[1,5-a]pyridine-5-carboxylic acid (1-ethyl-1H-pyrazol-4-yl)-amide], the pIC50 was 7.00 to 8.00.

As for `CCn1cnc(NC(=O)c2cc3c(nc2OC)nc(C(O)(c2ccccc2)c2ccccn2)n3CC)n1` (single isomer, unassigned) [Compound 53, 1-ethyl-N-(1-ethyl-1H-1,2,4-triazol-3-yl)-2-[hydroxy(phenyl)(pyridin-2-yl)methyl]-5-methoxy-1H-imidazo[4,5-b]pyridine-6-carboxamide], the negative logarithm of the IC50 (pIC50) was 8.00 to 9.00.

Take `CCc1c(C(O)(c2ccccc2)c2ccccn2)nc2cc(OC)c(C(=O)Nc3ncn(CC)n3)cn12` (racemic) [Compound 16, 3-Ethyl-2-(hydroxy-phenyl-pyridin-2-yl-methyl)-7-methoxy-imidazo[1,2-a]pyridine-6-carboxylic acid (1-ethyl-1H-[1,2,4]triazol-3-yl)-amide]: the pIC50 is 7.00 to 8.00.

`CCn1cnc(NC(=O)c2cc3c(nc2F)nc(C(O)(c2ccccc2)c2ccccc2)n3CC)n1` [Compound 89, 1-ethyl-N-(1-ethyl-1H-1,2,4-triazol-3-yl)-5-fluoro-2-(hydroxydiphenylmethyl)-1H-imidazo[4,5-b]pyridine-6-carboxamide]: the pIC50 was 8.00 to 9.00.

As to `CCc1c(C(O)(c2ccccc2)c2ccccc2)nc2cc(Cl)c(C(=O)Nc3ncn(CC)n3)cn12` [Compound 14, 7-Chloro-3-ethyl-2-(hydroxy-diphenylmethyl)-imidazo[1,2-a]pyridine-6-carboxylic acid (1-ethyl-1H-[1,2,4]triazol-3-yl)-amide], the pIC50 was 8.00 to 9.00.

Consider `CCn1cnc(NC(=O)c2cc3c(nc2OC)nc(C(O)(c2ccccc2F)c2ccccc2F)n3CC)n1` [Compound 102, 2-[bis(2-fluorophenyl)(hydroxy)methyl]-1-ethyl-N-(1-ethyl-1H-1,2,4-triazol-3-yl)-5-methoxy-1H-imidazo[4,5-b]pyridine-6-carboxamide], for which the pIC50 is 9.00 to 11.00.

In the case of `CCc1c(C(O)(c2ccccc2)c2ccccc2)nc2ccc(C(=O)Nc3ncn(CC)n3)cn12` [Compound 25, 3-Ethyl-2-(hydroxy-diphenyl-methyl)-imidazo[1,2-a]pyridine-6-carboxylic acid (1-ethyl-1H-[1,2,4]triazol-3-yl)-amide], the negative logarithm of the IC50 (pIC50) was 8.00 to 9.00.

In the case of `CCn1c(C(O)(c2ccccc2)c2ccccc2)nc2ccc(C(=O)NC[C@@H](C)O)cc21` [Reference Compound, 3-Ethyl-2-[hydroxy(diphenyl)methyl]-N-[(2R)-2-hydroxypropyl]benzimidazole-5-carboxamide, reference compound], the negative logarithm of the IC50 (pIC50) was 5.00 to 7.00.

With `CCc1c(C(O)(c2ccccc2)c2ccccc2)nc2cc(OC)c(C(=O)Nc3ncn(CC)n3)cn12` [Compound 24, 3-Ethyl-2-(hydroxy-diphenyl-methyl)-7-methoxy-imidazo[1,2-a]pyridine-6-carboxylic acid (1-ethyl-1H-[1,2,4]triazol-3-yl)-amide], the negative logarithm of the IC50 (pIC50) was 8.00 to 9.00.

`CCc1c(C(O)(c2ccccc2F)c2ccccc2F)nn2cc(OC)c(C(=O)Nc3cnn(CC)c3)cc12` [Compound 4, 2-[Bis-(2-fluoro-phenyl)-hydroxy-methyl]-3-ethyl-6-methoxy-pyrazolo[1,5-a]pyridine-5-carboxylic acid (1-ethyl-1H-pyrazol-4-yl)-amide]: the pIC50 was 7.00 to 8.00.

Regarding `CCc1c(C(O)(c2ccccc2)c2ccccc2)nc2cc(Cl)c(C(=O)Nc3cnn(CC)c3)cn12` [Compound 19, 7-Chloro-3-ethyl-2-(hydroxy-diphenylmethyl)-imidazo[1,2-a]pyridine-6-carboxylic acid (1-ethyl-1H-pyrazol-4-yl)-amide], the negative logarithm of the IC50 (pIC50) is 7.00 to 8.00.

On to `CCc1c(C(O)(c2ccccc2F)c2ccccc2F)nn2ccc(C(=O)Nc3ncn(CC)n3)cc12` [Compound 5, 2-[Bis-(2-fluoro-phenyl)-hydroxy-methyl]-3-ethyl-pyrazolo[1,5-a]pyridine-5-carboxylic acid (1-ethyl-1H-[1,2,4]triazol-3-yl)-amide], for which the pIC50 was 8.00 to 9.00.

For `CCn1cnc(NC(=O)c2cc3c(nc2OC)nc(C(O)(c2ccccc2)c2ccccc2)n3CC)n1` [Compound 103, 1-ethyl-N-(1-ethyl-1H-1,2,4-triazol-3-yl)-2-(hydroxydiphenylmethyl)-5-methoxy-1H-imidazo[4,5-b]pyridine-6-carboxamide], the negative-log IC50 (pIC50) was 8.00 to 9.00.

Regarding `CCc1c(C(O)(c2ccccc2F)c2ccccc2F)nc2cc(OC)c(C(=O)Nc3cnn(CC)c3)cn12` [Compound 30, 2-[Bis-(2-fluoro-phenyl)-hydroxy-methyl]-3-ethyl-7-methoxy-imidazo[1,2-a]pyridine-6-carboxylic acid (1-ethyl-1H-pyrazol-4-yl)-amide], the negative logarithm of the IC50 (pIC50) is 8.00 to 9.00.

For the compound `CCc1c(C(O)(c2ccccc2F)c2ccccc2F)nn2cc(C)c(C(=O)Nc3ncn(CC)n3)cc12` [Compound 3, 2-[Bis-(2-fluoro-phenyl)-hydroxy-methyl]-3-ethyl-6-methyl-pyrazolo[1,5-a]pyridine-5-carboxylic acid (1-ethyl-1H-[1,2,4]triazol-3-yl)-amide], the pIC50 was 8.00 to 9.00.

Turning to `CCc1c(C(O)(c2ccccc2F)c2ccccc2F)nc2cc(Cl)c(C(=O)Nc3ncn(CC)n3)cn12` [Compound 31, 2-[Bis-(2-fluoro-phenyl)-hydroxy-methyl]-7-chloro-3-ethyl-imidazo[1,2-a]pyridine-6-carboxylic acid (1-ethyl-1H-[1,2,4]triazol-3-yl)-amide], the negative-log IC50 (pIC50) was 8.00 to 9.00.

`CCn1cc(NC(=O)c2cc3c(nc2F)nc(C(O)(c2ccccc2F)c2ccccc2F)n3CC)cn1` [Compound 90, 2-[bis(2-fluorophenyl)(hydroxy)methyl]-1-ethyl-N-(1-ethyl-1H-pyrazol-4-yl)-5-fluoro-1H-imidazo[4,5-b]pyridine-6-carboxamide]: the negative-log IC50 (pIC50) was 8.00 to 9.00.

Consider `CCc1c(C(O)(c2ccccc2)c2ccccc2)nn2cc(Cl)c(C(=O)Nc3ncn(CC)n3)cc12` [Compound 1, 6-Chloro-3-ethyl-2-(hydroxy-diphenylmethyl)-pyrazolo[1,5-a]pyridine-5-carboxylic acid (1-ethyl-1H-[1,2,4]triazol-3-yl)-amide], for which the pIC50 was 9.00 to 11.00.

Consider `CCc1c(C(O)(c2ccccc2)c2ccccc2)nn2cc(Cl)c(C(=O)Nc3cnn(CC)c3)cc12` [Compound 6, 6-Chloro-3-ethyl-2-(hydroxy-diphenylmethyl)-pyrazolo[1,5-a]pyridine-5-carboxylic acid (1-ethyl-1H-pyrazol-4-yl)-amide], for which the pIC50 was 7.00 to 8.00.

As for `CCn1cc(NC(=O)c2cc3c(nc2Cl)nc(C(O)(c2ccccc2)c2ccccc2)n3CC)cn1` [Compound 98, 5-chloro-1-ethyl-N-(1-ethyl-1H-pyrazol-4-yl)-2-(hydroxydiphenylmethyl)-1H-imidazo[4,5-b]pyridine-6-carboxamide], the negative logarithm of the IC50 (pIC50) is 8.00 to 9.00.

Consider `CCc1c(C(O)(c2ccccc2F)c2ccccc2F)nn2cc(Cl)c(C(=O)Nc3ncn(CC)n3)cc12` [Compound 2, 2-[Bis-(2-fluoro-phenyl)-hydroxy-methyl]-6-chloro-3-ethyl-pyrazolo[1,5-a]pyridine-5-carboxylic acid (1-ethyl-1H-[1,2,4]triazol-3-yl)-amide], for which the negative-log IC50 (pIC50) was 8.00 to 9.00.

For the compound `CCc1c(C(O)(c2ccccc2)c2ccccc2)nc2ccc(C(=O)Nc3cnn(CC)c3)cn12` [Compound 13, 3-Ethyl-2-(hydroxy-diphenyl-methyl)-imidazo[1,2-a]pyridine-6-carboxylic acid (1-ethyl-1H-pyrazol-4-yl)-amide], the pIC50 is 7.00 to 8.00.

Take `CCc1c(C(O)(c2ccccc2)c2ccccc2)nc2cc(OC)c(C(=O)Nc3cnn(CC)c3)cn12` [Compound 23, 3-Ethyl-2-(hydroxy-diphenyl-methyl)-7-methoxy-imidazo[1,2-a]pyridine-6-carboxylic acid (1-ethyl-1H-pyrazol-4-yl)-amide]: the negative-log IC50 (pIC50) is 8.00 to 9.00.

Take `CCc1c(C(O)(c2ccccc2F)c2ccccc2F)nc2cc(OC)c(C(=O)Nc3ncn(CC)n3)cn12` [Compound 28, 2-[Bis-(2-fluoro-phenyl)-hydroxy-methyl]-3-ethyl-7-methoxy-imidazo[1,2-a]pyridine-6-carboxylic acid (1-ethyl-1H-[1,2,4]triazol-3-yl)-amide]: the pIC50 is 8.00 to 9.00.

In the case of `CCc1c(C(O)(c2ccccc2)c2ccccc2)nn2ccc(C(=O)Nc3ncn(CC)n3)cc12` [Compound 9, 3-Ethyl-2-(hydroxy-diphenyl-methyl)-pyrazolo[1,5-a]pyridine-5-carboxylic acid (1-ethyl-1H-[1,2,4]triazol-3-yl)-amide], the negative-log IC50 (pIC50) is 8.00 to 9.00.

`CCn1cnc(NC(=O)c2cc3c(nc2OC)nc(C(O)(c2ccccc2F)c2ccc(OC(F)F)cc2F)n3CC)n1` (racemic) [Compound 94, 2-{[4-(difluoromethoxy)-2-fluorophenyl](2-fluorophenyl)hydroxymethyl}-1-ethyl-N-(1-ethyl-1H-1,2,4-triazol-3-yl)-5-methoxy-1H-imidazo[4,5-b]pyridine-6-carboxamide]: the pIC50 was 8.00 to 9.00.

With `CCc1c(C(O)(c2ccccc2)c2ccccc2)nn2ccc(C(=O)Nc3cnn(CC)c3)cc12` [Compound 10, 3-Ethyl-2-(hydroxy-diphenyl-methyl)-pyrazolo[1,5-a]pyridine-5-carboxylic acid (1-ethyl-1H-pyrazol-4-yl)-amide], the pIC50 is 7.00 to 8.00.
